This experiment deals with ApoE. The experiment in a line: ApoE gene expression analysis by qRT-PCR in MeWo cancer cells. It is filed as cell-based. Particulars: 48 h; for Emax at 1 µM / Emax at 10 µM: read-out: ApoE gene expression in relation to GW3965 at 1 μM (100%). As for the experimental part: Cancer cells (MeWo) were treated in presence of drug or control (DMSO) at indicated concentrations for 48 h. RNA was extracted from whole cell lysates using the Total RNA Purification Kit (17200, Norgen, Thorold, Canada). 600 ng of total RNA was then reverse transcribed into cDNA using the Verso cDNA Synthesis Kit (AB-1453/B, Fisher Scientific). 6 ng of the resulting cDNA was then mixed with SYBR green PCR Master Mix (4309155, Applied Biosystems) and the appropriate primers. Each reaction was performed in quadruplicate, and mRNA expression was quantified by performing real-time PCR amplification using a StepOne Plus Real-Time PCR System (Applied Biosystems). GAPDH was used as an endogenous control for normalization. EC50 values were calculated using Prism6 software and plotting expression values versus drug concentration. The following primers were used: [table] The results are shown in relation to GW3965 ApoE expression at 1 μM (i.e. 100%).

One may read the EC50 as the concentration needed to bring the measured effect to its halfway point. Read a low EC50 as an effect from little substance.

For the compound `CS(=O)(=O)NC(=O)Cc1cccc(OCCCN(Cc2cccc(C(F)(F)F)c2Cl)CC(c2ccccc2)c2ccccc2)c1` [Compound 2, 2-{3-[3-({[2-chloro-3-(trifluoromethyl)phenyl]methyl}(2,2-diphenylethyl)amino)propoxy]phenyl}-N-methanesulfonylacetamide], where the note is “Homo sapiens, MeWo, 1 μM”, the Emax at 1 µM is over 40%. Also, for the setting “Homo sapiens, MeWo, 10 μM”, the Emax at 10 µM was over 40%.
Consider `O=C(O)c1cccc(OCCCN(Cc2cccc(C(F)(F)F)c2Cl)CC(c2ccccc2)c2ccccc2)c1` [Compound 3, 3-[3-({[2-chloro-3-(trifluoromethyl)phenyl]methyl}(2,2-diphenylethyl)amino)propoxy]benzoic acid], for which the Emax at 1 µM (Homo sapiens, MeWo, 1 μM) was over 40%. In addition, under “Homo sapiens, MeWo, 10 μM”, the Emax at 10 µM is under 40%.
Compound `CC(C)(O)c1cccc(OCCCN(Cc2cccc(C(F)(F)F)c2Cl)CC(c2ccccc2)c2ccccc2)c1` [Compound 4, 2-{3-[3-({[2-chloro-3-(trifluoromethyl)phenyl]methyl}(2,2-diphenylethyl)amino)propoxy]phenyl}propan-2-ol] gave an EC50 (Homo sapiens, MeWo) of under 1 µM. Further, the Emax at 1 µM (Homo sapiens, MeWo, 1 μM) is over 40%. Besides, for the setting “Homo sapiens, MeWo, 10 μM”, the Emax at 10 µM was over 40%.
For the setting “Homo sapiens, MeWo”, `O=C1Cc2cc(OCCCN(Cc3cccc(C(F)(F)F)c3Cl)CC(c3ccccc3)c3ccccc3)ccc2CO1` [Compound 6, 6-[3-({[2-chloro-3-(trifluoromethyl)phenyl]methyl}(2,2-diphenylethyl)amino)propoxy]-3,4-dihydro-1H-2-benzopyran-3-one] gave an EC50 of under 0.3 µM. Also, the Emax at 1 µM (Homo sapiens, MeWo, 1 μM) was over 80%. In addition, the Emax at 10 µM (Homo sapiens, MeWo, 10 μM) was over 40%.
The corresponding values for `CS(=O)(=O)c1cccc(OCCCN(Cc2cccc(C(F)(F)F)c2Cl)CC(c2ccccc2)c2ccccc2)c1` [Compound 7, {[2-chloro-3-(trifluoromethyl)phenyl]methyl}(2,2-diphenylethyl)[3-(3-methanesulfonylphenoxy)propyl]amine] are under 1 µM, over 80% and over 40%.
Turning to `O=C(O)Cc1cccc(OCCCN(Cc2cccc(OC(F)(F)F)c2)CC(c2ccccc2)c2ccccc2)c1` [Compound 24], the Emax at 1 µM (Homo sapiens, MeWo, 1 μM) is over 40%. Also, the Emax at 10 µM (Homo sapiens, MeWo, 10 μM) is over 40%.
For `O=C(O)Cc1cccc(OCCCN(Cc2cccc(OC(F)(F)C(F)F)c2)CC(c2ccccc2)c2ccccc2)c1` [Compound 25, 2-(3-{3[(2,2-diphenylethyl)({[3-(1,1,2,2-tetrafluoroethoxy)phenyl]methyl})amino]propoxy}phenyl)acetic acid], the Emax at 1 µM (Homo sapiens, MeWo, 1 μM) is over 40%. In addition, under “Homo sapiens, MeWo, 10 μM”, the Emax at 10 µM was under 40%.
The like results for `O=C(O)Cc1cccc(OCCCN(Cc2cccc3c2OC(F)(F)O3)CC(c2ccccc2)c2ccccc2)c1` [Compound 26, 2[3-(3-{[(2,2-difluoro-2H-1,3-benzodioxol-4-yl)methyl](2,2-diphenylethyl)amino}propoxy)phenyl]acetic acid] were, in that order, under 40% and under 40%.
As to `C[C@H](CCO[C@@H]1CCCN(S(C)(=O)=O)C1)N(Cc1cccc(C(F)(F)F)c1Cl)CC(c1ccccc1)c1ccccc1` [Compound 30, {[2-chloro-3-(trifluoromethyl)phenyl]methyl}(2,2-diphenylethyl)[(2R)-4-{[(3R)-1-methanesulfonylpiperidin-3-yl]oxy}butan-2-yl]amine], under “Homo sapiens, MeWo, 1 μM”, the Emax at 1 µM was over 40%. In addition, for the setting “Homo sapiens, MeWo, 10 μM”, the Emax at 10 µM is over 80%.
In the case of `CS(=O)(=O)c1cc(OCCCN(Cc2cccc(C(F)(F)F)c2Cl)CC(c2ccccc2)c2ccccc2)cc(F)c1C(=O)O` [Compound 35, 4-[3-({[2-chloro-3-(trifluoromethyl)phenyl]methyl}(2,2-diphenylethyl)amino)propoxy]-2-fluoro-6-methanesulfonylbenzoic acid], the EC50 (Homo sapiens, MeWo) was under 3 µM. Also, the Emax at 1 µM (Homo sapiens, MeWo, 1 μM) is under 40%. For the setting “Homo sapiens, MeWo, 10 μM”, the Emax at 10 µM is over 40%.
For `CC(CCN(Cc1cccc(C(F)(F)F)c1Cl)CC(c1ccccc1)c1ccccc1)Oc1cc(F)c(CO)c(S(C)(=O)=O)c1` (centres unmarked) [Compound 59, (4-{[4-({[2-chloro-3-(trifluoromethyl)phenyl]methyl}(2,2-diphenylethyl)amino)butan-2-yl]oxy}-2-fluoro-6-methanesulfonylphenyl)methanol], the EC50 (Homo sapiens, MeWo) was under 0.3 µM. Further, the Emax at 1 µM (Homo sapiens, MeWo, 1 μM) was over 40%. Also, the Emax at 10 µM (Homo sapiens, MeWo, 10 μM) was over 40%.
`CC(C)(O)c1c(F)cc(OCCCN(Cc2cccc(C(F)(F)F)c2Cl)CC(c2ccccc2)c2ccccc2)cc1S(C)(=O)=O` [Compound 60, 2-{4-[3-({[2-chloro-3-(trifluoromethyl)phenyl]methyl}(2,2-diphenylethyl)amino)propoxy]-2-fluoro-6-methanesulfonylphenyl}propan-2-ol] returned an EC50 (Homo sapiens, MeWo) of under 0.3 µM. The Emax at 1 µM (Homo sapiens, MeWo, 1 μM) is over 40%. Where the note is “Homo sapiens, MeWo, 10 μM”, the Emax at 10 µM is over 80%.
For `CS(=O)(=O)N1CC[C@H](OCCCN(Cc2cccc(C(F)(F)F)c2Cl)CC(c2ccccc2)c2ccccc2)C1` [Compound 61, {[2-chloro-3-(trifluoromethyl)phenyl]methyl}(2,2-diphenylethyl)(3-{[(3S)-1-methanesulfonylpyrrolidin-3-yl]oxy}propyl)amine], the Emax at 1 µM (Homo sapiens, MeWo, 1 μM) was over 40%. Further, the Emax at 10 µM (Homo sapiens, MeWo, 10 μM) is over 80%.
`CS(=O)(=O)N1CC(OCCCN(Cc2cccc(C(F)(F)F)c2Cl)CC(c2ccccc2)c2ccccc2)C1` [Compound 62, {[2-chloro-3-(trifluoromethyl)phenyl]methyl} (2,2-diphenylethyl){3-[(1-methanesulfonylazetidin-3-yl)oxy]propyl}amine] gave an EC50 (Homo sapiens, MeWo) of under 1 µM. The Emax at 1 µM (Homo sapiens, MeWo, 1 μM) was over 80%. For the same compound, for the setting “Homo sapiens, MeWo, 10 μM”, the Emax at 10 µM is over 80%.
Turning to `CS(=O)(=O)N1CCC[C@@H](OCCCN(Cc2cccc(C(F)(F)F)c2Cl)CC(c2ccccc2)c2ccccc2)C1` [Compound 63, {[2-chloro-3-(trifluoromethyl)phenyl]methyl}(2,2-diphenylethyl)(3-{[(3R)-1-methanesulfonylpiperidin-3-yl]oxy}propyl)amine], the EC50 was under 3 µM. Further, under “1 μM”, the “ApoE gene expression in relation to GW3965 at 1 μM (100%)” value (shortened to “ApoE gene expression … (100%)”) is on record as “+++ (“+++” > 80% ApoE induction)”. In addition, the “ApoE gene expression … (100%)” value (10 μM) was “+++ (“+++” > 80% ApoE induction)”.
On to `COC(=O)c1c(F)cc(OCCCN(Cc2cccc(C(F)(F)F)c2Cl)CC(c2ccccc2)c2ccccc2)cc1S(C)(=O)=O` [Compound 64, methyl 4-[3-({[2-chloro-3-(trifluoromethyl)phenyl]methyl}(2,2-diphenylethyl)amino)propoxy]-2-fluoro-6-methanesulfonylbenzoate], for which the EC50 (Homo sapiens, MeWo) was under 1 µM. Further, under “Homo sapiens, MeWo, 1 μM”, the Emax at 1 µM is over 80%. Moreover, where the note is “Homo sapiens, MeWo, 10 μM”, the Emax at 10 µM is over 80%.
In the case of `CS(=O)(=O)c1cc(OCCCN(Cc2cccc(C(F)(F)F)c2Cl)CC(c2ccccc2)c2ccccc2)cc(F)c1C=O` [Compound 65, 4-[3-({[2-chloro-3-(trifluoromethyl)phenyl]methyl}(2,2-diphenylethyl)amino)propoxy]-2-fluoro-6-methanesulfonyl-benzaldehyde], the 50% effective concentration (EC50) (Homo sapiens, MeWo) is under 1 µM. Moreover, the Emax at 1 µM (Homo sapiens, MeWo, 1 μM) is over 80%. For the same compound, for the setting “Homo sapiens, MeWo, 10 μM”, the Emax at 10 µM is over 80%.
`CS(=O)(=O)N1CCC[C@H](OCCCN(Cc2cccc(C(F)(F)F)c2Cl)CC(c2ccccc2)c2ccccc2)C1` [Compound 66, {[2-chloro-3-(trifluoromethyl)phenyl]methyl}(2,2-diphenylethyl)(3-{[(3S)-1-methanesulfonylpiperidin-3-yl]oxy}propyl)amine] yielded an EC50 of under 3 µM. For the same compound, where the note is “1 μM”, the “ApoE gene expression … (100%)” value is reported as “+++ (“+++” > 80% ApoE induction)”. Moreover, the “ApoE gene expression … (100%)” value (10 μM) is given as “+++ (“+++” > 80% ApoE induction)”.
For `C[C@@H](CCOc1cc(F)c(CO)c(S(C)(=O)=O)c1)N(Cc1cccc(C(F)(F)F)c1Cl)CC(c1ccccc1)c1ccccc1` [Compound 71, {4-[(3S)-3-({[2-chloro-3-(trifluoromethyl)phenyl]methyl}(2,2-diphenylethyl)amino)butoxy]-2-fluoro-6-methanesulfonylphenyl}methanol], under “Homo sapiens, MeWo, 1 μM”, the Emax at 1 µM is under 40%.
On to `CS(=O)(=O)c1cc(OCCCN(Cc2cccc(C(F)(F)F)c2F)CC(c2ccccc2)c2ccccc2)cc(F)c1CO` [Compound 72, (4-{3-[(2,2-diphenylethyl)({[2-fluoro-3-(trifluoromethyl)phenyl]methyl})amino]propoxy}-2-fluoro-6-methanesulfonylphenyl)methanol], for which the Emax at 1 µM (Homo sapiens, MeWo, 1 μM) was over 80%. For the same compound, where the note is “Homo sapiens, MeWo, 10 μM”, the Emax at 10 µM was over 80%.
As for `CS(=O)(=O)c1cc(OCCCN(Cc2cccc(C(F)(F)F)c2)CC(c2ccccc2)c2ccccc2)cc(F)c1CO` [Compound 73, (4-{3-[(2,2-diphenylethyl)({[3-(trifluoromethyl)phenyl]methyl})amino]propoxy}-2-fluoro-6-methanesulfonylphenyl)methanol], the Emax at 1 µM (Homo sapiens, MeWo, 1 μM) was over 80%. Also, where the note is “Homo sapiens, MeWo, 10 μM”, the Emax at 10 µM was over 80%.
With `CS(=O)(=O)c1cc(OCCCN(Cc2cccc(OC(F)(F)F)c2)CC(c2ccccc2)c2ccccc2)cc(F)c1CO` [Compound 74, (4-{3-[(2,2-diphenylethyl)({[3-(trifluoromethoxy)phenyl]methyl})amino]propoxy}-2-fluoro-6-methanesulfonylphenyl)methanol], where the note is “Homo sapiens, MeWo, 1 μM”, the Emax at 1 µM is over 40%. The Emax at 10 µM (Homo sapiens, MeWo, 10 μM) was over 40%.
`CS(=O)(=O)c1cc(OCCCN(Cc2ccc(F)c(C(F)(F)F)c2)CC(c2ccccc2)c2ccccc2)cc(F)c1CO` [Compound 75, (4-{3-[(2,2-diphenylethyl)({[4-fluoro-3-(trifluoromethyl)phenyl]methyl})amino]propoxy}-2-fluoro-6-methanesulfonylphenyl)methanol]: the Emax at 1 µM (Homo sapiens, MeWo, 1 μM) was over 40%. Further, the Emax at 10 µM (Homo sapiens, MeWo, 10 μM) was over 80%.
